Experiment [1] deals with IRF pathway, THP1-Dual™ cells. Description: STING reporter assay in THP1-Dual cells, IRF pathway (Lucia luciferase, QUANTI-Luc). The experiment is classed as cell-based, human. The conditions noted are these: THP1-Dual cells, 10% human plasma, 20 hours, Lucia luciferase, 100% activation = 100 μM cGAMP, read-out: IRF (EC50 μM). Put shortly:
(§1)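 THP-1-derived dual-reporter cells treated with serially diluted compounds (final top concentration 100 μM) for 20 h at 37° C. NF-κB read as SEAP via QUANTI-Blue at OD620; IRF read as Lucia luminescence via QUANTI-Luc after 5 min. 100% activation set by 100 μM cGAMP, baseline by DMSO.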
For orientation: A reporter such as luciferase makes a cellular process visible.

Experiment [2] concerns NF-κB pathway, THP1-Dual™ cells. Put plainly: STING reporter assay in THP1-Dual cells, NF-κB pathway (SEAP, QUANTI-Blue). The experiment is classed as cell-based, human. As to conditions: THP1-Dual cells, 10% human plasma, 20 hours, SEAP, 100% activation = 100 μM cGAMP, read-out: NFkB (EC50 μM). Put shortly:
as §1

Like-named read-outs stand apart in the source and are kept apart here. Where only a bound is given, the exact number is not on record here.

One may read the EC50 as the concentration needed to bring the measured effect to its halfway point. As to `Cc1cc(C(=O)O[C@H](C)C(F)(F)F)c2oc(C(C)NC(=O)c3cnn4cccnc34)c(Cl)c2c1` (stereo partly drawn) [EXAMPLE 304, (R)-1,1,1-Trifluoropropan-2-yl 3-chloro-5-methyl-2-(1-(pyrazolo[1,5-a]pyrimidine-3-carboxamido)ethyl)benzofuran-7-carboxylate], the EC50 in experiment [1] (Homo sapiens, THP1-Dual, 20 h) was determined as 7.6 µM; in experiment [2] (Homo sapiens, THP1-Dual, 20 h), 8.3 µM.

Regarding `CC(NC(=O)c1cnn2cccnc12)c1cc2cc(F)cc(C(=O)O[C@@H](C)C(F)(F)F)c2o1` (stereo partly drawn) [EXAMPLE 305, (S)-1,1,1-Trifluoropropan-2-yl 5-fluoro-2-(1-(pyrazolo[1,5-a]pyrimidine-3-carboxamido)ethyl)benzofuran-7-carboxylate], the concentration for a half-maximal effect (EC50) in experiment [1] (Homo sapiens, THP1-Dual, 20 h) worked out at 5 µM; in experiment [2] (Homo sapiens, THP1-Dual, 20 h) it was 3.9 µM.

For the compound `CC(NC(=O)c1cnn2cccnc12)c1cc2cc(F)cc(C(=O)OC3CC(F)(F)C3)c2o1` (stereo not shown) [EXAMPLE 306, 3,3-Difluorocyclobutyl 5-fluoro-2-(1-(pyrazolo[1,5-a]pyrimidine-3-carboxamido)ethyl)benzofuran-7-carboxylate], the EC50 in experiment [1] (Homo sapiens, THP1-Dual, 20 h) worked out at 1.3 µM; in experiment [2] (Homo sapiens, THP1-Dual, 20 h), 1.3 µM.

As for `CC(OC(=O)c1ccc(Cl)c2cc(CNC(=O)c3cnn4cccnc34)oc12)C(F)(F)F` (stereo not shown) [EXAMPLE 311, 1,1,1-Trifluoropropan-2-yl 4-chloro-2-((pyrazolo[1,5-a]pyrimidine-3-carboxamido)methyl)benzofuran-7-carboxylate], the EC50 was 2 µM in experiment [1] and 2.3 µM in experiment [2].

Regarding `CC(OC(=O)c1ccc(Cl)c2cc(CNC(=O)c3cnn4cccnc34)oc12)C(F)(F)F` (stereo not shown) [EXAMPLE 312, 1,1,1-Trifluoropropan-2-yl 4-chloro-2-((pyrazolo[1,5-a]pyrimidine-3-carboxamido)methyl)benzofuran-7-carboxylate], the figures for the 50% effective concentration (EC50) in experiment [1] and in experiment [2] were 21 µM and 56 µM, respectively.

Take `CC(NC(=O)c1cnn2cccnc12)c1cc2cc(F)cc(C(=O)O[C@H](C)C(F)(F)F)c2o1` (stereo partly drawn) [EXAMPLE 325, (R)-1,1,1-Trifluoropropan-2-yl 5-fluoro-2-(1-(pyrazolo[1,5-a]pyrimidine-3-carboxamido)ethyl)benzofuran-7-carboxylate]: the EC50 turned out to be 1.7 µM in experiment [1] and 1.4 µM in experiment [2].

Regarding `CC(NC(=O)c1cnn2cccnc12)c1cc2cc(F)cc(C(=O)O[C@H](C)C(F)(F)F)c2o1` (stereo partly drawn) [EXAMPLE 326, (R)-1,1,1-Trifluoropropan-2-yl 5-fluoro-2-(1-(pyrazolo[1,5-a]pyrimidine-3-carboxamido)ethyl)benzofuran-7-carboxylate], the half-maximal effective concentration (EC50) is 74 µM in experiment [1] and more than 100 µM in experiment [2].

`CC(OC(=O)c1cc(Cl)cc2cc(CN3CCc4ccncc4C3=O)oc12)C(F)(F)F` (stereo not shown) [EXAMPLE 337, 1,1,1-Trifluoropropan-2-yl 5-chloro-2-((1-oxo-3,4-dihydro-2,7-naphthyridin-2(1H)-yl)methyl)benzofuran-7-carboxylate]: the EC50 in experiment [1] was determined as 9.8 µM; in experiment [2], 13 µM.

Regarding `CC(OC(=O)c1cc(Cl)cc2cc(CN3CCc4ccncc4C3=O)oc12)C(F)(F)F` (stereo not shown) [EXAMPLE 338, 1,1,1-Trifluoropropan-2-yl 5-chloro-2-((1-oxo-3,4-dihydro-2,7-naphthyridin-2(1H)-yl)methyl)benzofuran-7-carboxylate], the EC50 in experiment [1] was determined as 46 µM; in experiment [2] it was 48 µM.

`[2H]C([2H])([2H])OC(=O)c1cccc2cc(CN3CCc4ccncc4C3=O)oc12` [EXAMPLE 353, Methyl-D3 2-((1-oxo-3,4-dihydro-2,7-naphthyridin-2(1H)-yl)methyl)benzofuran-7-carboxylate]: the EC50 in experiment [1] (Homo sapiens, THP1-Dual, 20 h) was 10 µM; in experiment [2] (Homo sapiens, THP1-Dual, 20 h), 18 µM.

On to `O=C(OCC1CC1)c1cccc2cc(CN3CCc4ccncc4C3=O)oc12` [EXAMPLE 354, Cyclopropylmethyl 2-((1-oxo-3,4-dihydro-2,7-naphthyridin-2(1H)-yl)methyl)benzofuran-7-carboxylate], for which the EC50 in experiment [1] (Homo sapiens, THP1-Dual, 20 h) was 46 µM; in experiment [2] (Homo sapiens, THP1-Dual, 20 h), 70 µM.

As for `O=C(OCC(F)(F)F)c1ccc(F)c2cc(CNC(=O)c3cnn4cccnc34)oc12` [EXAMPLE 355, 2,2,2-Trifluoroethyl 4-fluoro-2-((pyrazolo[1,5-a]pyrimidine-3-carboxamido)methyl)benzofuran-7-carboxylate], the EC50 in experiment [1] (Homo sapiens, THP1-Dual, 20 h) came out at 0.96 µM; in experiment [2] (Homo sapiens, THP1-Dual, 20 h), 1.3 µM.

For the compound `O=C(OCC(F)(F)F)c1ccc(F)c2cc(Cn3cnc4ccncc4c3=O)oc12` [EXAMPLE 356], the 50% effective concentration (EC50) in experiment [1] (Homo sapiens, THP1-Dual, 20 h) turned out to be 13 µM; in experiment [2] (Homo sapiens, THP1-Dual, 20 h) it was 18 µM.

For `O=C(OCC(F)(F)F)c1ccc(Cl)c2cc(CNC(=O)c3cnn4cccnc34)oc12` [EXAMPLE 357, 2,2,2-Trifluoroethyl 4-chloro-2-((pyrazolo[1,5-a]pyrimidine-3-carboxamido)methyl)benzofuran-7-carboxylate], the 50% effective concentration (EC50) in experiment [1] (Homo sapiens, THP1-Dual, 20 h) came to 0.9 µM; in experiment [2] (Homo sapiens, THP1-Dual, 20 h), 1 µM.

For the compound `Cc1ccc(C(=O)OCC(F)(F)F)c2oc(CNC(=O)c3cnn4cccnc34)cc12` [EXAMPLE 358, 2,2,2-Trifluoroethyl 4-methyl-2-((pyrazolo[1,5-a]pyrimidine-3-carboxamido)methyl)benzofuran-7-carboxylate], the EC50 in experiment [1] (Homo sapiens, THP1-Dual, 20 h) amounted to 2.9 µM; in experiment [2] (Homo sapiens, THP1-Dual, 20 h) it was 2 µM.

As for `Cc1ccc(C(=O)OCC(F)(F)F)c2oc(Cn3ccc4ccncc4c3=O)cc12` [EXAMPLE 359], the EC50 in experiment [1] (Homo sapiens, THP1-Dual, 20 h) came to 3.8 µM; in experiment [2] (Homo sapiens, THP1-Dual, 20 h), 4 µM.

With `Cc1ccc(C(=O)OCC(F)(F)F)c2oc(Cn3cnc4ccncc4c3=O)cc12` [EXAMPLE 360], the EC50 in experiment [1] (Homo sapiens, THP1-Dual, 20 h) came to 2.8 µM; in experiment [2] (Homo sapiens, THP1-Dual, 20 h), 3.4 µM.

For the compound `Cc1ccc(C(=O)OCC(F)(F)F)c2oc(CN3CCc4ccncc4C3=O)cc12` [EXAMPLE 361], the concentration for a half-maximal effect (EC50) in experiment [1] (Homo sapiens, THP1-Dual, 20 h) is 5.5 µM; in experiment [2] (Homo sapiens, THP1-Dual, 20 h), 7.2 µM.

Consider `O=C(OCC(F)(F)F)c1cc(F)cc2cc(Cn3ccc4ccncc4c3=O)oc12` [EXAMPLE 362, 2,2,2-Trifluoroethyl 5-fluoro-2-((1-oxo-2,7-naphthyridin-2(1H)-yl)methyl)benzofuran-7-carboxylate], for which the EC50 in experiment [1] (Homo sapiens, THP1-Dual, 20 h) was found to be 5.7 µM; in experiment [2] (Homo sapiens, THP1-Dual, 20 h), 4.6 µM.

In the case of `O=C(OCC(F)(F)F)c1cc(F)cc2cc(Cn3cnc4ccncc4c3=O)oc12` [EXAMPLE 363, 2,2,2-Trifluoroethyl 5-fluoro-2-((4-oxopyrido[4,3-d]pyrimidin-3(4H)-yl)methyl)benzofuran-7-carboxylate], the EC50 is 3.5 µM in experiment [1] (Homo sapiens, THP1-Dual, 20 h) and 3.2 µM in experiment [2] (Homo sapiens, THP1-Dual, 20 h).

For `CC(OC(=O)c1cc(F)cc2cc(Cn3cnc4ccncc4c3=O)oc12)C(F)(F)F` (stereo not shown) [EXAMPLE 364, 1,1,1-Trifluoropropan-2-yl 5-fluoro-2-((4-oxopyrido[4,3-d]pyrimidin-3(4H)-yl)methyl)benzofuran-7-carboxylate], the results for the EC50 in experiment [1] and in experiment [2] were 35 µM and 21 µM, respectively.

Take `CC(OC(=O)c1cc(F)cc2cc(Cn3cnc4ccncc4c3=O)oc12)C(F)(F)F` (stereo not shown) [EXAMPLE 365, 1,1,1-Trifluoropropan-2-yl 5-fluoro-2-((4-oxopyrido[4,3-d]pyrimidin-3(4H)-yl)methyl)benzofuran-7-carboxylate]: the EC50 in experiment [1] amounted to 7.5 µM; in experiment [2] it was 4.4 µM.

Turning to `O=C(Cc1cc(F)cc2cc(CNC(=O)c3cnn4cccnc34)oc12)OCC(F)(F)F` [EXAMPLE 366, 2,2,2-Trifluoroethyl 2-(5-fluoro-2-((pyrazolo[1,5-a]pyrimidine-3-carboxamido)methyl)benzofuran-7-yl)acetate], the EC50 was 4 µM in experiment [1] (Homo sapiens, THP1-Dual, 20 h) and 4 µM in experiment [2] (Homo sapiens, THP1-Dual, 20 h).
